The target in series [1] is T1, hNPY1R (Homo sapiens, UniProt P25929).
T1 sequence (P25929 1-384): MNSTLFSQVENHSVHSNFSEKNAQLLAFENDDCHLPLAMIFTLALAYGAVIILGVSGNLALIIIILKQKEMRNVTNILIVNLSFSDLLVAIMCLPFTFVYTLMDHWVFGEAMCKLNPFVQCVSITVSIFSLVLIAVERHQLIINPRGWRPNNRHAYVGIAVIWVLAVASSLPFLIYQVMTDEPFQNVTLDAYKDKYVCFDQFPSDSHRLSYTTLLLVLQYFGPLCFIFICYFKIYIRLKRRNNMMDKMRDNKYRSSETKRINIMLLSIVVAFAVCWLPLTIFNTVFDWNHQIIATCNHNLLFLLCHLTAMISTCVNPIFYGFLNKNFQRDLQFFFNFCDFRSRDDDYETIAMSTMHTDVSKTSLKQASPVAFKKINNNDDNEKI
Kind of series: calcium flux assay (FLIPR), in vitro functional activity on human NPY1 receptor. The series is classed as cell-based. To be noted: initial concentration 1 µM, average of at least 3 independent tests.
Method: • 1) Preparation of test analogue and positive reference agonist: the test analogue was diluted 4-fold to 10 concentrations using Bravo, transferred 900 nL to the analogue plate using Echo, and then added with 30 µL of detection buffer (20 mM HEPES, 1×HBSS, 0.1% casein) to each well. The initial concentration of the test analogue and the positive reference agonist were 1 µM. • 2) The cell plate was removed from the incubator (cell Y1 needs to be removed of the culture medium and added with 20 µL of detection buffer, otherwise they will all be a high signal; it is not necessary for Y5), added with 2*Fluo-4 detection reagent, 20 µL per well, incubated in a 37°C incubator for 50 minutes, and then left to stand at room temperature for 10 minutes. • 3) The cell plate, the analogue plate, and the pipette tip were placed into the FLIPR instrument, the instrument was started, and 10 µL of analogue was transferred from the analogue plate to the cell plate. […] Using the logarithm of the concentration of analogues as the horizontal axis and the activation rate of calcium ion fluorescence signal as the vertical axis, the "Nonlinear regression (curve fit)-log (antigen) vs. response Variable slope" model in GraphPad Prism 5.0 was used for fitting to calculate the EC50 of the sample.

Series [2] addresses T2, recombinant human NPY2 receptor (Homo sapiens, UniProt P49146).
T2 construct: expressed in transfected cells; host or cells: HEK 293
T2 sequence (P49146 1-381): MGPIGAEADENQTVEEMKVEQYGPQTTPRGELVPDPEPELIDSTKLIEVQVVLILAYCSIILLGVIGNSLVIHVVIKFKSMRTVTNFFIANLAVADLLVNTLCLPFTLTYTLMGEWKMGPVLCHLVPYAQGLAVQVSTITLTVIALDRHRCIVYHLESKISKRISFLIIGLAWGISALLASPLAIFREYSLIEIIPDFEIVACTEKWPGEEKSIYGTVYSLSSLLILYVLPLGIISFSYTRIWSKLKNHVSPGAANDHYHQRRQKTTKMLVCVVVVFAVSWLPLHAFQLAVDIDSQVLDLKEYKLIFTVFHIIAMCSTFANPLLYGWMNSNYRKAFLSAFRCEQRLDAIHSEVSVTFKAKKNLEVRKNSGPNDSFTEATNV
As to the kind of experiment: cAMP assay, in vitro functional activity on NPY2 receptors (inhibition of Forskolin-induced cAMP production). To be noted: HEK 293 cells overexpressing recombinant human NPY2 receptor; average of at least 3 independent tests; read-out: hNPY2R EC50. It counts as cell-based. The method, then:
After addition, they were centrifuged at 1000 rpm for 1 minute. • 5) 5 µL of 2 µM Forskolin (prepared with detection buffer) was added to a 384-well cell reaction plate using Multidrop Combi and centrifuged at 1000 rpm for 1 minute. 5 µL of detection buffer containing cells was added to a 384-well reaction plate, ensuring a cell count of 3000 cells per well. […] It was covered with a lid and incubated at room temperature in the dark for 1 hour. • 7) After incubation for 1 hour, it was placed in an EnVision microplate reader for measurement.

A short description of series [3]: plasma pharmacokinetics in crab-eating macaques (LC-MS/MS). It counts as in vivo. To be noted: monkey, sc, male crab-eating macaques, single subcutaneous 0.246 mg/kg. How it is done:
(§1) Blood samples were collected from each animal at each time point after administration, and the blood samples were centrifuged at around 4°C, 3200 g, for 10 minutes. Plasma was collected separately, transferred to pre-labeled 96-well plates or polypropylene tubes, speedily frozen on dry ice, and stored at -60°C or lower until LC-MS/MS analysis.
(§2) LC-MS/MS method was adopted to determine the concentration of the measured analogues in blood samples. The data on the changes in plasma concentration over time were plotted into a chart and analyzed using non partitioned methods with Phoenix WinNonlin 6.3 software program. Relevant PK parameters were calculated based on the administration routes.
The plasma pharmacokinetics of PYY analogues in male crab-eating macaques were evaluated after a single subcutaneous administration of 0.246 mg/kg Analogue 3. Blood samples were collected from 2 crab-eating macaques at each time point after administration for 1h, 2h, 4h, 8h, 12h, 24h, 48h, 72h, 96h, 120h, 144h, 168h, 192h, 240h, 288h, 336h, 408h, 504h, extending to 504 hours. Due to the use of discontinuous sampling to evaluate the kinetics of PYY analogues in crab-eating macaques, the pharmacokinetic parameters of Analogue 3 after a single subcutaneous administration of 0.246 mg/kg were listed using average concentration-time data.

The nature of series [4]: plasma pharmacokinetics in SD rats (LC-MS/MS). To be noted: rat, sc, male rats, single subcutaneous 0.492 mg/kg. The series is classed as in vivo. The method, then:
as §1, §2
The plasma pharmacokinetics of PYY analogues in male SD rats were evaluated after a single subcutaneous administration of 0.492 mg/kg Analogue 3. Blood samples were collected from 3 rats at each time point after administration for 0.5h, 1h, 2h, 4h, 8h, 12h, 16h, 24h, 48h, 72h, 96h, 120h, 144h, 168h, extending to 168h. Due to the use of discontinuous sampling to evaluate the kinetics of PYY analogues in rats, the pharmacokinetic parameters of Analogue 3 after a single subcutaneous administration of 0.492 mg/kg were listed using average concentration-time data.

*1 amine or outer side, *2 acyl side, *3 side chain or, on linkers, in order; H or OH if unused. Where a SMILES comes first, the peptide text is derived from it. Side-chain parts run from the residue outwards. [ ]: non-standard residue; d: D form. The star is where a group is joined. C18 diacid = O=C(O)CCCCCCCCCCCCCCCCC(=O)*; γGlu = O=C(O)[C@H](CCC(=O)[*:2])N[*:1]; AEEA = NCCOCCOCC(=O)O; Aib = CC(C)(N)C(=O)O

On to `CC(C)C[C@H](NC(=O)[C@H](CCC(=O)O)NC(=O)[C@H](C)NC(=O)[C@H](Cc1ccc(O)cc1)NC(=O)[C@H](Cc1ccc(O)cc1)NC(=O)[C@H](CCCNC(=N)N)NC(=O)[C@H](CCC(N)=O)NC(=O)[C@H](Cc1c[nH]c2ccccc12)NC(=O)[C@H](CCC(=O)O)NC(=O)[C@H](CCC(=O)O)NC(=O)[C@@H]1CCCN1C(=O)[C@H](CO)NC(=O)[C@H](C)NC(=O)[C@H](CC(=O)O)NC(=O)C(C)(C)NC(=O)[C@H](CCC(=O)O)NC(=O)[C@@H]1CCCN1C(=O)[C@H](CCCCNC(=O)COCCOCCNC(=O)CC[C@H](NC(=O)CCCCCCCCCCCCCCCCC(=O)O)C(=O)O)NC(=O)[C@H](CCC(=O)O)NC(=O)[C@@H]1CCCN1C(=O)[C@H](CCCCN)NC(=O)[C@@H]1CCCN1)C(=O)N[C@@H](CCCNC(=N)N)C(=O)N[C@@H](Cc1c[nH]cn1)C(=O)N[C@@H](Cc1ccc(O)cc1)C(=O)N[C@@H](CC(C)C)C(=O)N[C@@H](CC(N)=O)C(=O)N[C@@H](Cc1c[nH]c2ccccc12)C(=O)N[C@@H](CC(C)C)C(=O)N[C@H](C(=O)N[C@@H](CCCNC(=N)N)C(=O)N[C@@H](CCC(N)=O)C(=O)N[C@@H](CCCNC(=N)N)C(=O)N[C@@H](Cc1ccc(O)cc1)C(N)=O)[C@@H](C)O` [Analogue 2], for which the EC50 in series [1] was more than 50000 pM; in series [2] it was 37 pM.

For the molecule `CC(C)C[C@H](NC(=O)[C@H](Cc1ccc(O)cc1)NC(=O)[C@H](Cc1c[nH]cn1)NC(=O)[C@H](CCCNC(=N)N)NC(=O)[C@H](CC(C)C)NC(=O)[C@H](CCC(=O)O)NC(=O)C(C)(C)NC(=O)[C@H](Cc1ccc(O)cc1)NC(=O)[C@H](Cc1ccc(O)cc1)NC(=O)[C@H](CCCNC(=N)N)NC(=O)[C@H](CCC(N)=O)NC(=O)[C@H](Cc1c[nH]c2ccccc12)NC(=O)[C@H](CCC(=O)O)NC(=O)[C@H](CCC(=O)O)NC(=O)[C@@H]1CCCN1C(=O)[C@H](CO)NC(=O)[C@H](C)NC(=O)[C@H](CC(=O)O)NC(=O)C(C)(C)NC(=O)[C@H](CCC(=O)O)NC(=O)[C@@H]1CCCN1C(=O)[C@H](CCCCNC(=O)COCCOCCNC(=O)CC[C@H](NC(=O)CCCCCCCCCCCCCCCCC(=O)O)C(=O)O)NC(=O)[C@H](CCC(=O)O)NC(=O)[C@@H]1CCCN1C(=O)[C@H](CCCCN)NC(=O)[C@@H]1CCCN1)C(=O)N[C@@H](CC(N)=O)C(=O)N[C@@H](Cc1c[nH]c2ccccc12)C(=O)N[C@@H](CC(C)C)C(=O)N[C@H](C(=O)N[C@@H](CCCNC(=N)N)C(=O)N[C@@H](CCC(N)=O)C(=O)N[C@@H](CCCNC(=N)N)C(=O)N[C@@H](Cc1ccc(O)cc1)C(N)=O)[C@@H](C)O` [Analogue 3], in series [1], the EC50 is more than 50000 pM. Also, the EC50 in series [2] was 37 pM. In series [3], the AUC(0-inf) worked out at 337 µg·h/mL, the Cmax worked out at 1780 ng/mL, the Tmax was determined as 12 h and the half-life is 126 h. In addition, in series [4], the AUC(0-inf) amounted to 79.6 µg·h/mL, the Cmax was found to be 1940 ng/mL, the Tmax worked out at 13.3 h and the half-life is 24.7 h.

Regarding `CC(C)C[C@H](NC(=O)[C@H](Cc1ccc(O)cc1)NC(=O)[C@H](Cc1c[nH]cn1)NC(=O)[C@H](CCCNC(=N)N)NC(=O)[C@H](CC(C)C)NC(=O)[C@H](CO)NC(=O)C(C)(C)NC(=O)[C@H](Cc1ccc(O)cc1)NC(=O)[C@H](Cc1ccc(O)cc1)NC(=O)[C@H](CCCNC(=N)N)NC(=O)[C@H](CCC(N)=O)NC(=O)[C@H](Cc1c[nH]c2ccccc12)NC(=O)[C@H](CCC(=O)O)NC(=O)[C@H](CCC(=O)O)NC(=O)[C@@H]1CCCN1C(=O)[C@H](CO)NC(=O)C(C)(C)NC(=O)[C@H](CC(=O)O)NC(=O)[C@H](CCC(=O)O)NC(=O)[C@H](CCC(=O)O)NC(=O)[C@@H]1CCCN1C(=O)[C@H](CCCCNC(=O)COCCOCCNC(=O)CC[C@H](NC(=O)CCCCCCCCCCCCCCCCC(=O)O)C(=O)O)NC(=O)[C@H](CCC(=O)O)NC(=O)[C@@H]1CCCN1C(=O)[C@H](CCCCN)NC(=O)[C@@H]1CCCN1)C(=O)N[C@@H](CC(N)=O)C(=O)N[C@@H](Cc1c[nH]c2ccccc12)C(=O)N[C@@H](CC(C)C)C(=O)N[C@H](C(=O)N[C@@H](CCCNC(=N)N)C(=O)N[C@@H](CCC(N)=O)C(=O)N[C@@H](CCCNC(=N)N)C(=O)N[C@@H](Cc1ccc(O)cc1)C(N)=O)[C@@H](C)O` [Analogue 1] (H-PKPEK([AEEA-γGlu-C18 diacid])PEED[Aib]SPEEWQRYY[Aib]SLRHYLNWLTRQRY-NH2), the EC50 in series [1] was more than 50000 pM.

For the origin of these results see patent publication EP4696708A1, “PEPTIDE TYROSINE-TYROSINE ANALOG AND USE THEREOF” (The United Bio-Technology (Hengqin) Co., Ltd., priority 2023, dated 2024).
